{
  "source": "patent US20210052616A1",
  "about": "“ANTHRACYCLINE ENCAPSULATED WITH A POLYSACCHARIDE FOR USE IN THE TREATMENT OF TUMOURS” (NANOVELOS S.A, priority 2018, published 2021)",
  "format_in_all_cases": "cell-based",
  "conditions_in_all_cases": "24 h",
  "key": {"MCF-7": {"test_system": "MCF-7", "assay": "MTT cytotoxicity test, MCF-7", "description": "(§1) In this test, […] present in the cells converts the soluble tetrazolium salt (3-4,5-dimethylthiazol-2-yl)-2,5-diphenyltetrazolium bromide) into a reduced form. The reaction yields water-insoluble purple crystalline formazan. The number of crystals formed depends on the enzyme activity so that it is directly proportional to the number of viable cells in the sample. Spectrophotometric measurement requires the use of an organic solvent to dissolve the crystals obtained (isopropanol). The change in colour intensity is measured by spectrophotometry at 570 nm wavelength. The test was performed for a number of dilutions (9) of nanoparticle solutions containing the tested anthracycline. The baseline concentration of nanoparticles for MTT tests was 2.5 mg of nanoparticles/ml. […] The study was also performed for drug-free nanoparticles (the carrier itself was obtained similarly to the nanoparticles with the drug). Cells not exposed to toxic substances were used as a control for toxicity studies.\n(§2) After reaching 85-90% confluence, the cells were trypsinised using a 0.25% trypsin solution. The cells were then centrifuged (1200 rpm, 5 min.) and suspended in a culture medium suitable for a particular cell line. […] The cells were plated at a concentration of 1000 cells/100 μl of medium per culture well (96-well plates). The prepared plates were incubated (37° C./5% CO2/22 h to 26 h). Subsequently, the culture medium was replaced with a fresh one (100 μl) containing the appropriate concentration of the tested nanoparticles and set aside for 24 h (37° C./5% CO2). After the lapse of the test time, the medium was removed and replaced with 50 μl of an MTT reagent solution at a concentration of 1 mg/ml. The plate was incubated for 2 hours (37° C./5% CO2). Subsequently, the MTT solution was removed, and 100 μl of isopropanol was added. […] The mean value of absorbance read OD570 of the cells not exposed to a toxic agent (control) should be above 0.7 [see literature item 206].\n(§3) A decrease in the number of viable cells causes a decrease in metabolic activity in the sample. This reduction directly correlates with the amount of blue and purple formazan formed, monitored basing on the optical density at 570 nm. The following equation (C.1) is used to calculate viability reduction compared to control:\n(§4) where: • OD570e is the mean value of the measured absorbance of the test samples; • OD570b is the mean value of the measured absorbance of the control.\n(§5) The results obtained were statistically analysed using the Dixon Q test."}, "COLO 205": {"test_system": "COLO 205", "assay": "MTT cytotoxicity test, COLO 205", "description": "as §1, §2, §3, §4, §5"}, "A2780": {"test_system": "A2780", "assay": "MTT cytotoxicity test, A2780", "description": "as §1, §2, §3, §4, §5"}, "PANC-1": {"test_system": "PANC-1", "assay": "MTT cytotoxicity test, PANC-1", "description": "as §1, §2, §3, §4, §5"}, "ACHN": {"test_system": "ACHN", "assay": "MTT cytotoxicity test, ACHN", "description": "as §1, §2, §3, §4, §5"}, "OVCAR-3": {"test_system": "OVCAR-3", "assay": "MTT cytotoxicity test, OVCAR-3", "description": "as §1, §2, §3, §4, §5"}, "A549": {"test_system": "A549", "assay": "MTT cytotoxicity test, A549", "description": "as §1, §2, §3, §4, §5"}},
  "data": [
    {"smiles": "COc1cccc2c1C(=O)c1c(O)c3c(c(O)c1C2=O)C[C@@](O)(C(=O)CO)C[C@@H]3O[C@H]1C[C@H](N)[C@@H](O)[C@H](C)O1", "note": "[Epi, epirubicin]", "values": [
      {"measurement": "Average viability", "setting": "MCF-7; MCF-7, 1.25E+04 ng/ml NPs (pure drug equimolar)", "value": 88.51, "unit": "%"},
      {"measurement": "Average viability", "setting": "MCF-7; MCF-7, 1.25E+05 ng/ml NPs (pure drug equimolar)", "value": 46.97, "unit": "%"},
      {"measurement": "Average viability", "setting": "MCF-7; MCF-7, 1.25E+06 ng/ml NPs (pure drug equimolar)", "value": 5.9, "unit": "%"},
      {"measurement": "Average viability", "setting": "MCF-7; MCF-7, 2.50E+04 ng/ml NPs (pure drug equimolar)", "value": 64.7, "unit": "%"},
      {"measurement": "Average viability", "setting": "MCF-7; MCF-7, 2.50E+05 ng/ml NPs (pure drug equimolar)", "value": 41.35, "unit": "%"},
      {"measurement": "Average viability", "setting": "MCF-7; MCF-7, 2.50E+06 ng/ml NPs (pure drug equimolar)", "value": 1.68, "unit": "%"},
      {"measurement": "Average viability", "setting": "MCF-7; MCF-7, 5.00E+03 ng/ml NPs (pure drug equimolar)", "value": 97.78, "unit": "%"},
      {"measurement": "Average viability", "setting": "MCF-7; MCF-7, 5.00E+04 ng/ml NPs (pure drug equimolar)", "value": 56.01, "unit": "%"},
      {"measurement": "Average viability", "setting": "MCF-7; MCF-7, 5.00E+05 ng/ml NPs (pure drug equimolar)", "value": 31.11, "unit": "%"},
      {"measurement": "Average viability", "setting": "COLO 205; Colo205, 1.25E+04 ng/ml NPs (pure drug equimolar)", "value": 63.431, "unit": "%"},
      {"measurement": "Average viability", "setting": "COLO 205; Colo205, 1.25E+05 ng/ml NPs (pure drug equimolar)", "value": 55.748, "unit": "%"},
      {"measurement": "Average viability", "setting": "COLO 205; Colo205, 1.25E+06 ng/ml NPs (pure drug equimolar)", "value": 5.063, "unit": "%"},
      {"measurement": "Average viability", "setting": "COLO 205; Colo205, 2.50E+04 ng/ml NPs (pure drug equimolar)", "value": 66.212, "unit": "%"},
      {"measurement": "Average viability", "setting": "COLO 205; Colo205, 2.50E+05 ng/ml NPs (pure drug equimolar)", "value": 49.549, "unit": "%"},
      {"measurement": "Average viability", "setting": "COLO 205; Colo205, 2.50E+06 ng/ml NPs (pure drug equimolar)", "value": 2.239, "unit": "%"},
      {"measurement": "Average viability", "setting": "COLO 205; Colo205, 5.00E+03 ng/ml NPs (pure drug equimolar)", "value": 83.936, "unit": "%"},
      {"measurement": "Average viability", "setting": "COLO 205; Colo205, 5.00E+04 ng/ml NPs (pure drug equimolar)", "value": 61.427, "unit": "%"},
      {"measurement": "Average viability", "setting": "COLO 205; Colo205, 5.00E+05 ng/ml NPs (pure drug equimolar)", "value": 23.946, "unit": "%"},
      {"measurement": "Average viability", "setting": "A2780; A2780, 1.25E+04 ng/ml NPs (pure drug equimolar)", "value": 90.784, "unit": "%"},
      {"measurement": "Average viability", "setting": "A2780; A2780, 1.25E+05 ng/ml NPs (pure drug equimolar)", "value": 69.996, "unit": "%"},
      {"measurement": "Average viability", "setting": "A2780; A2780, 1.25E+06 ng/ml NPs (pure drug equimolar)", "value": 14.869, "unit": "%"},
      {"measurement": "Average viability", "setting": "A2780; A2780, 2.50E+04 ng/ml NPs (pure drug equimolar)", "value": 89.24, "unit": "%"},
      {"measurement": "Average viability", "setting": "A2780; A2780, 2.50E+05 ng/ml NPs (pure drug equimolar)", "value": 58.252, "unit": "%"},
      {"measurement": "Average viability", "setting": "A2780; A2780, 2.50E+06 ng/ml NPs (pure drug equimolar)", "value": 3.102, "unit": "%"},
      {"measurement": "Average viability", "setting": "A2780; A2780, 5.00E+03 ng/ml NPs (pure drug equimolar)", "value": 95.203, "unit": "%"},
      {"measurement": "Average viability", "setting": "A2780; A2780, 5.00E+04 ng/ml NPs (pure drug equimolar)", "value": 83.629, "unit": "%"},
      {"measurement": "Average viability", "setting": "A2780; A2780, 5.00E+05 ng/ml NPs (pure drug equimolar)", "value": 41.752, "unit": "%"},
      {"measurement": "Average viability", "setting": "PANC-1; PANC1, 1.25E+04 ng/ml NPs (pure drug equimolar)", "value": 94.813, "unit": "%"},
      {"measurement": "Average viability", "setting": "PANC-1; PANC1, 1.25E+05 ng/ml NPs (pure drug equimolar)", "value": 82.872, "unit": "%"},
      {"measurement": "Average viability", "setting": "PANC-1; PANC1, 1.25E+06 ng/ml NPs (pure drug equimolar)", "value": 27.965, "unit": "%"},
      {"measurement": "Average viability", "setting": "PANC-1; PANC1, 2.50E+04 ng/ml NPs (pure drug equimolar)", "value": 99.155, "unit": "%"},
      {"measurement": "Average viability", "setting": "PANC-1; PANC1, 2.50E+05 ng/ml NPs (pure drug equimolar)", "value": 79.499, "unit": "%"},
      {"measurement": "Average viability", "setting": "PANC-1; PANC1, 2.50E+06 ng/ml NPs (pure drug equimolar)", "value": 5.339, "unit": "%"},
      {"measurement": "Average viability", "setting": "PANC-1; PANC1, 5.00E+03 ng/ml NPs (pure drug equimolar)", "value": 97.954, "unit": "%"},
      {"measurement": "Average viability", "setting": "PANC-1; PANC1, 5.00E+05 ng/ml NPs (pure drug equimolar)", "value": 54.929, "unit": "%"},
      {"measurement": "Average viability", "setting": "ACHN; 1.25E+04 ng/ml NPs (pure drug equimolar)", "value": 65.301, "unit": "%"},
      {"measurement": "Average viability", "setting": "ACHN; 1.25E+05 ng/ml NPs (pure drug equimolar)", "value": 63.237, "unit": "%"},
      {"measurement": "Average viability", "setting": "ACHN; 1.25E+06 ng/ml NPs (pure drug equimolar)", "value": 46.66, "unit": "%"},
      {"measurement": "Average viability", "setting": "ACHN; 2.50E+04 ng/ml NPs (pure drug equimolar)", "value": 63.713, "unit": "%"},
      {"measurement": "Average viability", "setting": "ACHN; 2.50E+05 ng/ml NPs (pure drug equimolar)", "value": 60.112, "unit": "%"},
      {"measurement": "Average viability", "setting": "ACHN; 2.50E+06 ng/ml NPs (pure drug equimolar)", "value": 32.352, "unit": "%"},
      {"measurement": "Average viability", "setting": "ACHN; 5.00E+03 ng/ml NPs (pure drug equimolar)", "value": 81.178, "unit": "%"},
      {"measurement": "Average viability", "setting": "ACHN; 5.00E+04 ng/ml NPs (pure drug equimolar)", "value": 59.828, "unit": "%"},
      {"measurement": "Average viability", "setting": "ACHN; 5.00E+05 ng/ml NPs (pure drug equimolar)", "value": 50.916, "unit": "%"},
      {"measurement": "Average viability", "setting": "OVCAR-3; OVCAR3, 1.25E+05 ng/ml NPs (pure drug equimolar)", "value": 91.668, "unit": "%"},
      {"measurement": "Average viability", "setting": "OVCAR-3; OVCAR3, 1.25E+06 ng/ml NPs (pure drug equimolar)", "value": 58.803, "unit": "%"},
      {"measurement": "Average viability", "setting": "OVCAR-3; OVCAR3, 2.50E+04 ng/ml NPs (pure drug equimolar)", "value": 99.208, "unit": "%"},
      {"measurement": "Average viability", "setting": "OVCAR-3; OVCAR3, 2.50E+05 ng/ml NPs (pure drug equimolar)", "value": 88.222, "unit": "%"},
      {"measurement": "Average viability", "setting": "OVCAR-3; OVCAR3, 2.50E+06 ng/ml NPs (pure drug equimolar)", "value": 33.266, "unit": "%"},
      {"measurement": "Average viability", "setting": "OVCAR-3; OVCAR3, 5.00E+04 ng/ml NPs (pure drug equimolar)", "value": 92.151, "unit": "%"},
      {"measurement": "Average viability", "setting": "OVCAR-3; OVCAR3, 5.00E+05 ng/ml NPs (pure drug equimolar)", "value": 75.986, "unit": "%"},
      {"measurement": "Average viability", "setting": "A549; A549, 1.25E+04 ng/ml NPs (pure drug equimolar)", "value": 95.631, "unit": "%"},
      {"measurement": "Average viability", "setting": "A549; A549, 1.25E+05 ng/ml NPs (pure drug equimolar)", "value": 83.913, "unit": "%"},
      {"measurement": "Average viability", "setting": "A549; A549, 1.25E+06 ng/ml NPs (pure drug equimolar)", "value": 29.508, "unit": "%"},
      {"measurement": "Average viability", "setting": "A549; A549, 2.50E+04 ng/ml NPs (pure drug equimolar)", "value": 88.608, "unit": "%"},
      {"measurement": "Average viability", "setting": "A549; A549, 2.50E+05 ng/ml NPs (pure drug equimolar)", "value": 75.153, "unit": "%"},
      {"measurement": "Average viability", "setting": "A549; A549, 2.50E+06 ng/ml NPs (pure drug equimolar)", "value": 23.423, "unit": "%"},
      {"measurement": "Average viability", "setting": "A549; A549, 5.00E+04 ng/ml NPs (pure drug equimolar)", "value": 74.693, "unit": "%"}
    ]}
  ]
}
